Results: publication PMC12192727, “Strategies to Develop Na,K-ATPase-α4 Inhibitors as Male Contraceptives” (International Journal of Molecular Sciences, 2025)

Tested on: rat hepatocytes
Assay: Metabolic stability in rat hepatocytes
Type: in vitro ADME
Experimental: The in vitro metabolic half-life (t1/2) is calculated using the slope of the log−linear regression from the percentage of the parent compound remaining versus the time relationship (κ). The experimental details are reported in the Supporting Information (Tables S6 and S7).

SMILES: CC12CCC(=O)C=C1CCCC2n1cc(-c2ccccc2)nn1 (stereo not drawn) [Compound 45, 4a-Methyl-5-(4-phenyl-1H-1,2,3-triazol-1-yl)-4,4a,5,6,7,8-hexahydronaphthalen-2(3H)-one]
- Remaining Percentage (%) (rat boiled hepatocytes, 0 min): 100.00%
- Remaining Percentage (%) (rat boiled hepatocytes, 15 min): 101.65%
- Remaining Percentage (%) (rat boiled hepatocytes, 30 min): 104.87%
- Remaining Percentage (%) (rat boiled hepatocytes, 60 min): 104.47%
- Remaining Percentage (%) (rat boiled hepatocytes, 90 min): 104.04%
- Remaining Percentage (%) (rat boiled hepatocytes, 120 min): 104.50%
- Hepatic Extraction Ratio (E) (rat hepatocytes): 0.86
- Predicted hepatic CL (rat hepatocytes): 47.44 mL/min/kg
- Remaining Percentage (%) (rat hepatocytes, 0 min): 100.00%
- Remaining Percentage (%) (rat hepatocytes, 15 min): 51.55%
- Remaining Percentage (%) (rat hepatocytes, 30 min): 26.35%
- Remaining Percentage (%) (rat hepatocytes, 60 min): 9.77%
- Remaining Percentage (%) (rat hepatocytes, 90 min): 3.36%
- Remaining Percentage (%) (rat hepatocytes, 120 min): 1.25%
- Metabolic Stability in Hepatocytes (60 min), compound remaining (rat, 60 min): 10%
